# Test results reported in PubChem BioAssay (NCI).
#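 All cell lines were grown in 96-well plates and treated with compound for 48 hours. TGI marks complete inhibition of growth.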
# Key:
# Assay in all cases: NCI tumour cell line growth inhibition, 48 h
# [1] = test system: A549 NSCLC
# [2] = test system: ACHN renal
# [3] = test system: DU-145 prostate
# [4] = test system: HCC-2998 colon
# [5] = test system: HOP-62 NSCLC
# [6] = test system: HS 578T breast
# [7] = test system: NCI/ADR-RES ovarian
# [8] = test system: OVCAR-3 ovarian
# [9] = test system: OVCAR-5 ovarian
# [10] = test system: RPMI-8226 leukemia
# [11] = test system: SF-539 CNS
# [12] = test system: SK-MEL-28 melanoma
# [13] = test system: SK-MEL-5 melanoma
# [14] = test system: SN12C renal
# [15] = test system: SNB-75 CNS
# [16] = test system: TK-10 renal
# [17] = test system: UACC-62 melanoma
# [18] = test system: SF-295 CNS
# [19] = test system: SR leukemia
SMILES,TGI [1] [µM],TGI [2] [µM],TGI [3] [µM],TGI [4] [µM],TGI [5] [µM],TGI [6] [µM],TGI [7] [µM],TGI [8] [µM],TGI [9] [µM],TGI [10] [µM],TGI [11] [µM],TGI [12] [µM],TGI [13] [µM],TGI [14] [µM],TGI [15] [µM],TGI [16] [µM],TGI [17] [µM],TGI [18] [µM],TGI [19] [µM]
C[P+](c1ccccc1)(c1ccc(Cl)cc1)c1ccc(Cl)cc1,> 100,> 100,94.6,24,70.4,78.2,> 100,10.5,71.5,2.41,65.4,29,14.4,51.2,46,36.9,28.3,–,–
CC(=O)C1C(=O)C(=O)N(c2ccc([N+](=O)[O-])cc2)C1=O (stereo not given),> 100,> 100,> 100,> 100,> 100,> 100,> 100,> 100,> 100,–,> 100,> 100,> 100,> 100,> 100,> 100,> 100,> 100,–
Cc1cc(S(=O)(=O)Nc2nnc3ccccn23)c(S)cc1Cl,> 100,> 100,> 100,> 100,> 100,> 100,> 100,> 100,> 100,> 100,> 100,> 100,> 100,> 100,–,> 100,> 100,64.8,> 100
CCNC1=C(NC(=O)c2ccccc2)C(=O)c2ccccc2C1=O,> 100,–,> 100,> 100,> 100,> 100,39.7,85.3,> 100,> 100,> 100,> 100,–,> 100,–,> 100,> 100,> 100,> 100
C=CCOCn1cc(F)c(=O)[nH]c1=O,> 100,> 100,> 100,> 100,> 100,> 100,–,–,–,> 100,> 100,> 100,> 100,> 100,> 100,> 100,> 100,> 100,> 100
COC(=O)c1c(O)ccc2c1c1c(n2Cc2ccccc2OC)C(=O)c2ccccc2C1=O,20.2,29.7,30,15.7,27.8,53.2,39.2,23,40.1,10.5,47.1,36.1,25.8,25.4,–,65,–,63.6,3.18
COC(=O)c1cc(O)c(O)c(O)c1-c1c(O)c(O)c(O)c(SC[C@H](NC(=O)OCc2ccccc2)C(=O)OCc2ccccc2)c1C(=O)OC,36.3,61.1,> 100,> 100,> 100,> 100,> 100,> 100,> 100,81.7,73,> 100,–,41.8,68.1,> 100,64.8,> 100,–
COc1c(C(C)(C)C)cc(CC2C(=O)C=CC2=O)cc1C(C)(C)C,55.4,22.5,15.5,–,36.9,70.4,> 80.6,33.9,35.8,11.6,48.3,43.4,33.9,> 73,–,12.1,33.2,44,19.1
C=CCN1C[C@H](C)N([C@H](c2ccc(C(=O)N(CC)CC)cc2)c2cccc(OC)c2)C[C@H]1C,> 100,> 100,> 100,–,> 100,> 100,> 100,50.5,> 100,> 100,> 100,> 100,27.6,> 100,–,> 100,> 100,58.3,> 100
Cc1ccc(S(=O)(=O)N/N=C2\CCCCCCCCCCC2CN(C)C)cc1 (stereo not given),41,40.2,34.8,20.8,33.8,35.6,29.3,32.9,30.9,> 100,31.6,28.2,24,44.4,–,27.6,32.3,30.9,> 100
O=C(O)CCCNc1ncc2c(n1)-c1ccccc1OC2,> 100,> 100,> 100,–,> 100,> 100,> 100,> 100,> 100,> 100,> 100,> 100,> 100,> 100,> 100,> 100,> 100,> 100,> 100
CN(C)c1ccc(/C=N/c2nc3cc4sc(/N=C/c5ccc(N(C)C)cc5)nc4cc3s2)cc1,> 100,> 100,99.1,–,> 100,92.4,> 100,> 100,> 100,> 100,> 100,> 100,> 100,> 100,> 100,> 100,> 100,> 100,> 100
Cc1ccc(S(=O)(=O)N/N=C2\CCC3(O)CC2(C)CCC2C3CC2(C)C)cc1 (stereo not given),> 100,> 100,> 100,> 100,> 100,95.6,> 100,> 100,> 100,> 100,> 100,> 100,> 100,> 100,–,75.8,> 100,> 100,> 100
CCOC(=O)/C(C(=S)NCc1ccccc1)=C(/N)N1CCCC1,> 100,> 100,> 100,> 100,> 100,> 100,> 100,> 100,> 100,> 100,> 100,> 100,> 100,> 100,–,> 100,> 100,> 100,> 100
CN(C)C(=S)C(Cl)(c1ccccc1)c1ccccc1,> 100,> 100,> 100,> 100,> 100,> 100,> 100,> 100,> 100,–,> 100,> 100,> 100,> 100,> 100,> 100,> 100,> 100,–
CCC1(CC)N=C(C(F)(F)F)c2cc(C(=O)C(F)(F)F)c3ccccc3c2N1,60.7,> 100,21.5,15.3,28.5,32.2,42.1,8.58,58.1,–,31.8,52.2,11.4,13.7,23,61.3,13.3,9.6,9.36
Cc1cn(Cc2cccc(C3=NCCCN3)c2)c(=O)n(Cc2cccc(C3=NCCCN3)c2)c1=O,> 100,> 100,> 100,> 100,> 100,> 100,> 100,> 100,> 100,> 100,–,> 100,> 100,> 100,> 100,> 100,> 100,> 100,> 100
O=C1CCC2c3ccccc3NCN12 (stereo not given),> 100,> 100,> 100,> 100,> 100,> 100,> 100,> 100,> 100,> 100,> 100,> 100,> 100,> 100,> 100,> 100,> 100,> 100,–
Nc1cccc(OCC2CCCN3CCCCC23)c1 (stereo not given),45.1,31.9,32.6,30,36.1,35.2,38.3,38.2,35.2,33.1,36.5,35.7,33.8,33.6,30.8,34.1,31.8,33.8,–
COC(=O)c1ccc(C)cc1CC1Cc2cccc(C)c2C1=O (stereo not given),> 100,97.6,> 100,29.3,> 100,39.9,66.3,30.7,> 100,–,17.6,55.7,11.4,78.2,36.9,48.6,49.6,72.2,–
COC(=O)c1c(C)c2c(c(C)c1C(=O)OC)-c1c(C)ccc3ccc(C)c-2c13,> 100,> 100,> 100,–,> 100,> 100,> 100,> 100,> 100,> 100,> 100,> 100,95.8,> 100,> 100,> 100,> 100,> 87.1,46.9
COC1=C2CC(C)CC(OC)C(OC(=O)CN)[C@H](C)/C=C(\C)C(OC(N)=O)C(OC)/C=C\C=C(/C)C(=O)NC(=CC1=O)C2=O (stereo not given in full),21.8,13.4,16.4,7.81,6.02,20.2,27.8,2.98,13.8,> 100,12.7,1.75,4.51,4.91,–,15.6,1.78,17.5,1.98
CCC/C(Cl)=N/OC(NC(=O)OCC)(C(F)(F)F)C(F)(F)F,> 100,32.3,> 100,–,> 100,77.3,> 100,29.6,33.2,56.1,30.3,59.2,71.4,32.6,> 100,33.3,> 100,> 100,57.6
OCCCCn1cc(Cn2ncc3c(NCc4ccccc4)ncnc32)nn1,> 100,> 100,> 100,> 100,> 100,> 100,> 100,> 100,> 100,> 100,> 100,> 100,> 100,> 100,–,> 100,> 100,> 100,> 100
O=C(CSCC(=O)N/N=C\c1ccc(O)c(O)c1O)N/N=C\c1ccc(O)c(O)c1O,53.7,22,29.1,46.1,–,80.8,3.16,17.6,–,6.86,37.9,44.2,36.3,59,21.2,42,41.8,4.94,8.18
O=C(COc1ccccc1)N(C(=O)N1CCN(c2ccccc2)CC1)S(=O)(=O)c1ccccc1,> 100,> 100,> 100,> 100,> 100,> 100,> 100,> 100,> 100,–,> 100,> 100,> 100,> 100,96,> 100,> 100,> 100,45.4
